Reference: the supplement of paper PMC10307832

Assays:
Experiment in all cases: relative viability (nuclei count vs DMSO), 5 days (fraction); higher = more cells survive
[1] = compound: CC1=C(C=CC(=C1)[N+](=O)[O-])NS(=O)(=O)C2=C(C=CC(=C2)Cl)Cl [FH535] + Cc1nc(Nc2ncc(C(=O)Nc3c(C)cccc3Cl)s2)cc(N2CCN(CCO)CC2)n1 [Dasatinib] (partner 0.075 µM)
Method in brief: (§1)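 Relative viability was taken as the ratio of nuclei in treated wells to nuclei in vehicle wells. Lung cancer cell lines in 1536-well plates received compounds by pin tool one day after seeding, either one drug alone or a fixed anchor-drug dose plus five library-drug doses (not always all listed) in √10 steps. Nuclei were counted on 4× images after 5 days of treatment, and values are medians of duplicate plates.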

[2] = compound: CC1=C(C=CC(=C1)[N+](=O)[O-])NS(=O)(=O)C2=C(C=CC(=C2)Cl)Cl [FH535] + NC(=O)Nc1cc(-c2cccc(F)c2)sc1C(=O)N[C@H]1CCCNC1 [AZD7762] (partner 0.2 µM)
Method in brief: as §1

[3] = compound: CC1=C(C=CC(=C1)[N+](=O)[O-])NS(=O)(=O)C2=C(C=CC(=C2)Cl)Cl [FH535] + Cc1cc(Nc2cc(N3CCN(C)CC3)nc(Sc3ccc(NC(=O)C4CC4)cc3)n2)n[nH]1 [Tozasertib] (partner 0.1 µM)
Method in brief: as §1

[4] = compound: CC1=C(C=CC(=C1)[N+](=O)[O-])NS(=O)(=O)C2=C(C=CC(=C2)Cl)Cl [FH535] + CC(=O)c1c(C)c2cnc(Nc3ccc(N4CCNCC4)cn3)nc2n(C2CCCC2)c1=O [Palbociclib] (partner 0.5 µM)
Method in brief: as §1

[5] = compound: CC1=C(C=CC(=C1)[N+](=O)[O-])NS(=O)(=O)C2=C(C=CC(=C2)Cl)Cl [FH535] + CC(=O)Nc1cccc(-n2c(=O)n(C3CC3)c(=O)c3c(Nc4ccc(I)cc4F)n(C)c(=O)c(C)c32)c1 [Trametinib] (partner 0.02 µM)
Method in brief: as §1

Row | Cell Line | relative viability ([1]; first compound 0.04 µM) | relative viability ([1]; first compound 0.1265 µM) | relative viability ([1]; first compound 0.4 µM) | relative viability ([1]; first compound 1.265 µM) | relative viability ([2]; first compound 0.04 µM) | relative viability ([2]; first compound 0.1265 µM) | relative viability ([2]; first compound 0.4 µM) | relative viability ([2]; first compound 1.265 µM) | relative viability ([3]; first compound 0.04 µM) | relative viability ([3]; first compound 0.1265 µM) | relative viability ([3]; first compound 0.4 µM) | relative viability ([3]; first compound 1.265 µM) | relative viability ([4]; first compound 0.04 µM) | relative viability ([4]; first compound 0.1265 µM) | relative viability ([4]; first compound 0.4 µM) | relative viability ([4]; first compound 1.265 µM) | relative viability ([5]; first compound 0.04 µM) | relative viability ([5]; first compound 0.1265 µM) | relative viability ([5]; first compound 0.4 µM) | relative viability ([5]; first compound 1.265 µM)
1 | 201T | 0.555 | 0.568 | 0.437 | 0.442 | 0.594 | 0.728 | 0.62 | 0.696 | 0.919 | 0.953 | 0.976 | 0.743 | 0.374 | 0.344 | 0.332 | 0.301 | 0.718 | 0.72 | 0.69 | 0.562
2 | NCI-H322M | 0.255 | 0.268 | 0.238 | 0.219 | 0.522 | 0.549 | 0.515 | 0.633 | 0.493 | 0.514 | 0.475 | 0.468 | 0.489 | 0.481 | 0.524 | 0.511 | 0.47 | 0.459 | 0.478 | 0.526
3 | NCI-H838 | 0.276 | 0.291 | 0.284 | 0.269 | 0.893 | 1 | 0.902 | 0.891 | 0.286 | 0.246 | 0.272 | 0.19 | 0.217 | 0.222 | 0.208 | 0.198 | 0.536 | 0.52 | 0.452 | 0.462
4 | NCI-H460 | 0.356 | 0.546 | 0.452 | 0.337 | 0.616 | 0.615 | 0.603 | 0.337 | 0.219 | 0.5 | 0.382 | 0.21 | 0.175 | 0.253 | 0.244 | 0.117 | 0.12 | 0.152 | 0.157 | 0.103
5 | HOP-62 | 0.604 | 0.571 | 0.533 | 0.57 | 0.473 | 0.66 | 0.416 | 0.55 | 0.407 | 0.362 | 0.348 | 0.412 | 0.481 | 0.462 | 0.456 | 0.393 | 0.374 | 0.373 | 0.391 | 0.355
6 | SK-LU-1 | 0.191 | 0.192 | 0.182 | 0.194 |  |  |  |  | 0.319 | 0.38 | 0.316 | 0.32 | 0.412 | 0.406 | 0.373 | 0.334 | 0.476 | 0.49 | 0.501 | 0.418
7 | HCC-44 |  |  |  |  | 1 | 0.961 | 0.898 | 0.866 | 0.916 | 1 | 0.933 | 0.756 | 1.02 | 0.889 | 0.914 | 0.79 | 1.06 | 0.986 | 1.03 | 0.967
8 | SW 1573 | 0.42 | 0.414 | 0.344 | 0.454 |  |  |  |  | 0.171 | 0.164 | 0.215 | 0.161 | 0.389 | 0.428 | 0.384 | 0.298 | 0.686 | 0.528 | 0.651 | 0.376
9 | NCI-H1703 |  |  |  |  | 0.127 | 0.136 | 0.109 | 0.132 |  |  |  |  |  |  |  |  |  |  |  | 
10 | NCI-H661 | 0.704 | 0.994 | 0.615 | 0.475 |  |  |  |  | 0.365 | 0.339 | 0.346 | 0.332 | 0.387 | 0.399 | 0.394 | 0.32 | 0.526 | 0.686 | 0.553 | 0.365
11 | NCI-H2023 | 0.601 | 0.616 | 0.49 | 0.459 |  |  |  |  | 0.296 | 0.371 | 0.354 | 0.301 | 0.383 | 0.369 | 0.404 | 0.331 | 0.542 | 0.641 | 0.598 | 0.44
12 | COR-L 105 | 0.292 | 0.325 | 0.314 | 0.333 |  |  |  |  | 0.359 | 0.339 | 0.337 | 0.304 | 0.335 | 0.386 | 0.43 | 0.359 | 0.483 | 0.404 | 0.422 | 0.444
13 | NCI-H2228 | 0.49 | 0.502 | 0.552 | 0.402 |  |  |  |  | 0.238 | 0.244 | 0.305 | 0.215 | 0.734 | 0.548 | 0.745 | 0.788 | 0.376 | 0.368 | 0.464 | 0.413
14 | NCI-H520 | 0.203 | 0.193 | 0.2 | 0.19 |  |  |  |  | 0.375 | 0.44 | 0.393 | 0.401 | 0.205 | 0.248 | 0.182 | 0.246 | 0.703 | 0.691 | 0.696 | 0.684
15 | NCI-H1650 | 0.281 | 0.299 | 0.3 | 0.297 |  |  |  |  | 0.369 | 0.425 | 0.513 | 0.343 | 0.325 | 0.323 | 0.303 | 0.212 | 0.476 | 0.714 | 0.459 | 0.584
16 | NCI-H1792 | 0.661 | 0.761 | 0.701 | 0.543 | 0.646 | 0.79 | 0.539 | 0.577 |  |  |  |  | 0.657 | 0.629 | 0.664 | 0.486 | 0.493 | 0.504 | 0.455 | 0.394
17 | NCI-H1563 | 0.445 | 0.495 | 0.508 | 0.435 |  |  |  |  |  |  |  |  |  |  |  |  |  |  |  | 
18 | COR-L23 | 0.447 | 0.437 | 0.38 | 0.222 |  |  |  |  | 0.183 | 0.17 | 0.185 | 0.167 | 0.3 | 0.327 | 0.263 | 0.256 | 0.52 | 0.604 | 0.515 | 0.371
19 | UMC-11 | 0.446 | 0.454 | 0.416 | 0.422 |  |  |  |  | 0.189 | 0.213 | 0.196 | 0.202 | 0.346 | 0.361 | 0.311 | 0.325 | 0.663 | 0.525 | 0.576 | 0.684
